Laboratory results published in article PMC12126525, “Mechanism of ATP hydrolysis in the Hsp70 BiP nucleotide-binding domain” (Nature Communications, 2025).
Where “and” joins values, the source holds several entries; their conditions need not be identical. Identical values can stand only once.

Biological target: BiP NBD (Homo sapiens, UniProt P11021)
Experiment: Global kinetic fit (MCMC) of four NMR data sets (E1+E2, E1 only, E2 only, no recycling): functional cycle kinetic parameters
Assay type: biochemical
Set-up: His6 (N, cleaved yes); made in house; host or cells: E. coli BL21-(DE3)-Lemo, pET28a vector
Excerpt: It comprises 5 different states that are connected by […] reaction equations of first and second order. We consider ATP hydrolysis an irreversible reaction without backreaction. The other pathways are reversible dissociation/association reactions, arbitrarily labeled 1–5. The microscopic equations (elementary reactions) for these 11 reactions are given by:1 NBD^ATPkcat→NBD^ADP⋅Pi 2 NBD^ATPkoff1⇌kon1NBD^apo+ATP 3 NBD^ADPkoff2⇌kon2NBD^apo+ADP 4 NBD^Pikoff3⇌kon3NBD^apo+Pi 5 NBD^ADP⋅Pikoff4⇌kon4NBD^ADP+Pi 6 NBD^ADP⋅Pikoff5⇌kon5NBD^Pi+ADP With the forward and backward kinetic rate constants connected by thermodynamic equilibrium dissociation constants given by7 koffi/koni=KDifori=1,…,5 For each of the 5 states, a differential equation describing the conservation of mass can be derived:8 d/dtNBD^apo=+koff1NBD^ATP+koff2NBD^ADP+koff3NBD^Pi−kon1NBD^apoATP−kon2NBD^apoADP−kon3NBD^apoPi 9 d/dt[NBD^ATP]=+kon1NBD^apoATP−koff1NBD^ATP−kcatNBD^ATP 10 d/dtNBD^ADP⋅Pi=+kcatNBD^ATP+kon4NBD^ADPPi+kon5NBD^PiADP−koff4NBD^ADP⋅Pi−koff5NBD^ADP⋅Pi 11 d/dtNBD^ADP=+koff4NBD^ADP⋅Pi+kon2NBD^apoADP−koff2NBD^ADP−kon4NBD^ADPPi 12 d/dtNBD^Pi=+koff5NBD^ADP⋅Pi+kon3NBD^apoPi−koff3NBD^Pi−kon5NBD^PiADP Furthermore, we have the total amount13 NBD^apo+NBD^ATP+NBD^ADP+NBD^ADP⋅Pi+NBD^Pi=NBD0 These equations can be used for numerical fitting of steady-state and non-steady-state experimental data.
The experimental data of the BiP NBD in-cyclo experiments were fitted using standard reaction kinetics. Free variables were the kon and koff rates for the five reversible reaction and the catalytic rate constant (kcat) for the irreversible ATP hydrolysis step (See theory section). The initial values for kcat , koff2 , koff4 and koff5 were set to the value determined experimentally with in-cyclo experiment. The initial value for koff3 was taken from the EXSY experiment and the initial range for koff1 and KD1 were taken from the literature. […] The prior distributions were defined based on the average state occupancy resolved from the in-cyclo experiment: tNBD·ADP, tNBD, tNBD·ADP·Pi and tNBD·Pi. Numerical integration of the corresponding differential equations for the reaction scheme (described in Fig. 2a) was performed using a custom Python module (Kinetic).
To fully determine all kinetic parameters, the data fitting procedure was conducted as a global fit of four independent experimental datasets: (i) the in-cyclo experiment with ATP regeneration and phosphate removal, (ii) ATP regeneration only, (iii) single batch experiments starting from pure ATP with the phosphate removal system, and (iv) single batch experiments starting from pure ATP.
Fitting of the functional cycle kinetic parameters. a-d, Global fit of the experimental data presented in the manuscript E1 +E2 (a), E1 (b), E2 (c), no recycling system (d). Data points are shown as circles NBD·ADP (blue), NBD·ADP·PI (dark blue) and NBD·ATP (red) (left) and pyruvate (grey), glucose-1-P (lavender), ATP (red) and ADP (blue) (right). The fit of the data is shown as lines in the same color as the data points. Data points and standard deviation for three independent experiments. e, Numerical stability of the global fitting of the experimental data.

BiP NBD, sequence (P11021 19-406): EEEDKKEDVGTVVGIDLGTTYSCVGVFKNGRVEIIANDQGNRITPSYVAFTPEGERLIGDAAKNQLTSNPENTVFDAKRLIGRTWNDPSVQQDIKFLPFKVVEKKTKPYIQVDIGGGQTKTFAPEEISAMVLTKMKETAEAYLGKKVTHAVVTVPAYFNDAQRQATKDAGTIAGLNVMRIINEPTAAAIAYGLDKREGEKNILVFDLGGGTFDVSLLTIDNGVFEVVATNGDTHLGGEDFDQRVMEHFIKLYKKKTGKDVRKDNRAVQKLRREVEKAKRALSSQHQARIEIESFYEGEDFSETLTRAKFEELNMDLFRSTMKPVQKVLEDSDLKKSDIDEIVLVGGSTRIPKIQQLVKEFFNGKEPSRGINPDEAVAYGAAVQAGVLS

Nc1ncnc2c1ncn2[C@@H]1O[C@H](COP(=O)(O)OP(=O)(O)OP(=O)(O)O)[C@@H](O)[C@H]1O [ATP]
kcat (NBD·ATP → NBD·ADP·Pi, T = 37 °C): 0.065 ± 0.013 s⁻¹ and 0.065 ± 0.01 s⁻¹ | species (Supplementary Fig 10a, time 5 min): 4931 µM | species (Supplementary Fig 10a, time 11 min): 4934 µM | species (Supplementary Fig 10a, time 17 min): 4884 µM | species (Supplementary Fig 10a, time 23 min): 4899 µM | species (Supplementary Fig 10a, time 29 min): 4939 µM | species (Supplementary Fig 10a, time 35 min): 4943 µM | species (Supplementary Fig 10a, time 41 min): 4963 µM | species (Supplementary Fig 10a, time 47 min): 4978 µM | species (Supplementary Fig 10a, time 53 min): 5001 µM | species (Supplementary Fig 10a, time 59 min): 5024 µM | species (Supplementary Fig 10a, time 65 min): 5048 µM | species (Supplementary Fig 10a, time 71 min): 5079 µM | species (Supplementary Fig 10b, time 10 min): 5016 µM | species (Supplementary Fig 10b, time 16 min): 4951 µM | species (Supplementary Fig 10b, time 22 min): 4989 µM | species (Supplementary Fig 10b, time 28 min): 4949 µM | species (Supplementary Fig 10b, time 34 min): 5005 µM | species (Supplementary Fig 10b, time 40 min): 4923 µM | species (Supplementary Fig 10b, time 46 min): 4996 µM | species (Supplementary Fig 10b, time 52 min): 4916 µM | species (Supplementary Fig 10b, time 58 min): 4954 µM | species (Supplementary Fig 10b, time 64 min): 4989 µM | species (Supplementary Fig 10b, time 70 min): 4937 µM | species (Supplementary Fig 10c, time 5 min): 4151 µM | species (Supplementary Fig 10c, time 11 min): 3560 µM | species (Supplementary Fig 10c, time 17 min): 3077 µM | species (Supplementary Fig 10c, time 23 min): 2698 µM | species (Supplementary Fig 10c, time 29 min): 1801 µM | species (Supplementary Fig 10c, time 35 min): 1548 µM | species (Supplementary Fig 10c, time 41 min): 1183 µM | species (Supplementary Fig 10c, time 47 min): 1030 µM | species (Supplementary Fig 10c, time 53 min): 902 µM | kcat fitted average (Supplementary Fig 11b, fitted): 0.065 s⁻¹ | species (Supplementary Fig 10d, time 5 min): 4064 µM | species (Supplementary Fig 10d, time 11 min): 3620 µM | species (Supplementary Fig 10d, time 17 min): 3330 µM | species (Supplementary Fig 10d, time 23 min): 3106 µM | species (Supplementary Fig 10d, time 29 min): 2931 µM | species (Supplementary Fig 10d, time 35 min): 2788 µM | species (Supplementary Fig 10d, time 41 min): 2663 µM | species (Supplementary Fig 10d, time 47 min): 2548 µM | species (Supplementary Fig 10d, time 53 min): 2448 µM | factor by which ATP unbinding is rarer than ATP hydrolysis (koff1 versus kcat): 5 times | koff (reactions 1-3 (koff1, koff2, koff3): release from binary complex, T = 37 °C): 0.012 ± 0.003 s⁻¹ | kon (reactions 1-3: binding to apo NBD, T = 37 °C): 32000 ± 9000 M⁻¹ s⁻¹ | Kd (reactions 1-3: ligand leaving the binary complex to give apo NBD, standard buffer, T = 37 °C): 380 ± 120 nM
